Among the data in US10668047B2, “Aziridine containing DNA alkylating agents” (priority 2015, dated 2020) are IC50 and MTD values, retold here.

Read-outs that look alike come from different tables or passages of the source.

Series [1] concerns H460 non-cell lung cancer human tumor cell line. Description: In vitro human tumor cell line cytotoxicity (proliferation) assay, AlamarBlue. Format: cell-based. The gist of the method:
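H460 cells (4×10^3/well) attached for 24 h, then were exposed to compound for 2 hours at 37° C. before washout and 70 hrs further growth in fresh medium. Viable cells were measured by AlamarBlue, and IC50 (50% growth inhibition) was determined relative to media-only control.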
In general terms: The colour change of resazurin is a common sign of viable cells or microbes.

Series [2] is described as follows: MTD determination, administered daily for 5 days (preliminary studies for the H460 xenograft model). The format is in vivo, nude mice (nu/nu). Particulars: on the basis of weight loss and behavioral signs, female nude mice. As to the method: On the basis of the favorable in vitro data for these compounds, their anti-tumor activities in the H460 (NSCLC) human tumor xenograft model were evaluated. H460 cells (lx 10^6) were subcutaneously implanted in the flanks of pathogen-free homozygous female nude mice (nu/nu, Charles River Laboratories). When tumor size reached 100-150 mm^3, animals were randomized to 10 mice per treatment group. All tested compounds were formulated in 5% DMSO, 5% Tween 80 in D5W. The doses of all the compounds were chosen on the basis of preliminary studies to define the MTD of each compound when administered daily for 5 days. On the basis of weight loss and behavioral signs, the MTDs of TH2565 and TH2566 were determined to be 2 mg/kg, respectively. The comparative tumor volume reductions for certain compounds are graphically illustrated in FIGS. 1A-1C.

Setting [3] is: Homo sapiens, NCI-H460, read-out: IC50 (N2), H460 cells, under nitrogen, 2 hrs exposure, wash, then 70 hrs growth.
The mark [4] stands for this setting: Homo sapiens, NCI-H460, read-out: IC50 (air), H460 cells, under air, 2 hrs exposure, wash, then 70 hrs growth.
[5] abbreviates: Homo sapiens, NCI-H460, H460 cells, under air, 2 hrs exposure, wash, then 70 hrs growth, read-out: IC50 (air).
Setting [6] is: Homo sapiens, NCI-H460, H460 cells, under nitrogen, 2 hrs exposure, wash, then 70 hrs growth, read-out: IC50 (N2).

As a reminder, the IC50 is the concentration that inhibits the measured activity by half. As for `CC(OP(=O)(N1CC1)N1CC1)c1ccc([N+](=O)[O-])cc1` (single isomer, unassigned) [compound 2565], the IC50 in series [1] (setting [3]) was found to be 100 nM; in series [1] (setting [4]), 18000 nM. In series [2] (nude (nu/nu), mouse, in vivo), this molecule returned an MTD at 5 days of 2 mg/kg.

On to `CC(OP(=O)(N1CC1)N1CC1)c1ccc([N+](=O)[O-])cc1` (single isomer, unassigned) [compound 2566], for which the concentration for half-maximal inhibition (IC50) is 100 nM in series [1] (read-out: IC50 (N2), H460 cells, under nitrogen, 2 hrs exposure, wash, then 70 hrs growth) and 23000 nM in series [1] (read-out: IC50 (air), H460 cells, under air, 2 hrs exposure, wash, then 70 hrs growth). The same molecule gave an MTD in series [2] of 2 mg/kg.

Turning to `CC(OP(=O)(N1CC1)N1CC1)c1ccc([N+](=O)[O-])c(-n2ncc3ccccc32)c1` (stereo not drawn) [compound 2767], the IC50 in series [1] (setting [5]) is 2300 nM; in series [1] (setting [6]) it was 200 nM.

Regarding `CC(C)C(OP(=O)(N1CC1)N1CC1)c1ncc([N+](=O)[O-])n1C(C)C` (stereo not drawn) [compound 2604], the IC50 in series [1] (setting [5]) came to 320000 nM; in series [1] (setting [6]), 700 nM.

Turning to `CC(OP(=O)(N1CC1)N1CC1)c1ccc([N+](=O)[O-])c(-c2ccc(C#N)cc2)c1` (stereo not drawn) [compound 2775], the IC50 in series [1] (setting [5]) is 2500 nM; in series [1] (setting [6]), 300 nM.

Regarding `Cn1c([N+](=O)[O-])cnc1C(OP(=O)(N1CC1)N1CC1)c1ccccc1` (stereo not drawn) [compound 2542], the results for the IC50 in series [1] (setting [5]) and in series [1] (setting [6]) were 3400 nM and 1500 nM, respectively.

On to `CC(OP(=O)(N1CC1)N1CC1)c1cc(-n2cnc3ccccc32)c([N+](=O)[O-])cc1F` (stereo not drawn) [compound 2744], for which the IC50 stood at 2700 nM in series [1] (setting [5]) and 50 nM in series [1] (setting [6]).

For `CC(C)C(OP(=O)(N1CC1)N1CC1)c1ncc([N+](=O)[O-])n1C` (stereo not drawn) [compound 2568], the IC50 came out at 350000 nM in series [1] (H460 cells, under air, 2 hrs exposure, wash, then 70 hrs growth, read-out: IC50 (air)) and 300 nM in series [1] (H460 cells, under nitrogen, 2 hrs exposure, wash, then 70 hrs growth, read-out: IC50 (N2)).

Take `CCC(OP(=O)(N1CC1)N1CC1)c1ncc([N+](=O)[O-])n1C` (stereo not drawn) [compound 2662]: the IC50 in series [1] (setting [5]) was 22000 nM; in series [1] (setting [6]), 30 nM.

For `CC(OP(=O)(N1CC1)N1CC1)c1ccc([N+](=O)[O-])c(-c2ccc(F)cc2)c1` (stereo not drawn) [compound 2788], the IC50 was found to be 22000 nM in series [1] (setting [5]) and 1300 nM in series [1] (setting [6]).

On to `CC(OP(=O)(N1CC1)N1CC1)c1ccc([N+](=O)[O-])c(N2CCCC[C@H]2C)c1` (stereo partly drawn) [compound 2740], for which the IC50 in series [1] (setting [5]) came to 24000 nM; in series [1] (setting [6]), 1400 nM.

Turning to `CC(OP(=O)(N1CC1)N1CC1)c1ccc([N+](=O)[O-])c2ccccc12` (stereo not drawn) [compound 2824], the IC50 turned out to be 1700 nM in series [1] (setting [5]) and 20 nM in series [1] (setting [6]).

Take `O=[N+]([O-])c1ccc(COP(=O)(N2CC2)N2CC2)cc1` [compound 2550]: the results for the IC50 in series [1] (setting [5]) and in series [1] (setting [6]) were 29000 nM and 1800 nM, respectively.

`O=[N+]([O-])c1ccc(C(CC(F)(F)F)OP(=O)(N2CC2)N2CC2)cc1` (stereo not drawn) [compound 2690]: the IC50 turned out to be 99000 nM in series [1] (setting [5]) and 3200 nM in series [1] (setting [6]).

On to `CC(OP(=O)(N1CC1)N1CC1)c1ccc([N+](=O)[O-])c(N2CCN(Cc3cnc([N+](=O)[O-])n3C)CC2)c1` (stereo not drawn) [compound 2756], for which the IC50 in series [1] (setting [3]) was determined as 2800 nM; in series [1] (setting [4]), 45000 nM.

In the case of `CC(OP(=O)(N1CC1)N1CC1)c1ccc([N+](=O)[O-])c(N2CCCCC2)c1` (stereo not drawn) [compound 2696], the IC50 was determined as 310000 nM in series [1] (setting [5]) and 7400 nM in series [1] (setting [6]).

On to `COc1cc([N+](=O)[O-])ccc1C(C)OP(=O)(N1CC1)N1CC1` (stereo not drawn) [compound 2600], for which the figures for the IC50 in series [1] (setting [5]) and in series [1] (setting [6]) were 2800 nM and 50 nM, respectively.
